Experimental data reported in the NIST ThermoML archive (doi:10.1016/j.tca.2013.09.006).

Experiments:
[1] = mn = molality of the nth substance listed, in mol/kg; conditions: 101 kPa, Liquid; for mass density: Vibrating tube method; for speed of sound: vibrating tube:WF =
[2] = 101 kPa, Liquid; for mass density: Vibrating tube method; for speed of sound: vibrating tube

C[C@H](N)C(=O)N[C@@H](C)C(=O)O [L-alanyl-L-alanine] + O
[1]
Conditions | mass density, 305.15 K [kg/m3] | mass density, 310.15 K [kg/m3] | mass density, 315.15 K [kg/m3] | speed of sound, 305.15 K [m/s] | speed of sound, 310.15 K [m/s] | speed of sound, 315.15 K [m/s]
m1 = 0.00215 | 995.223 | 993.535 | 991.641 | 1514.2 | 1524.5 | 1532.9
m1 = 0.00421 | 995.35 | 993.662 | 991.767 | 1514.4 | 1524.8 | 1533
m1 = 0.00596 | 995.458 | 993.769 | 991.873 | 1514.5 | 1524.9 | 1533.1
m1 = 0.00831 | 995.604 | 993.913 | 992.016 | 1514.7 | 1525.1 | 1533.2
m1 = 0.00955 | 995.68 | 993.989 | 992.092 | 1514.9 | 1525.3 | 1533.4
m1 = 0.01169 | 995.812 | 994.12 | 992.222 | 1515 | 1525.5 | 1533.6
m1 = 0.01422 | 995.968 | 994.275 | 992.376 | 1515.2 | 1525.6 | 1533.7
m1 = 0.01594 | 996.074 | 994.38 | 992.48 | 1515.3 | 1525.8 | 1533.9
m1 = 0.01778 | 996.187 | 994.493 | 992.592 | 1515.5 | 1526 | 1534.1
m1 = 0.01983 | 996.314 | 994.618 | 992.716 | 1515.7 | 1526.2 | 1534.2

CC1(C)SC2C(NC(=O)C(N)c3ccccc3)C(=O)N2C1C(=O)O (centres undefined) + O
[1]
Conditions | mass density, 305.15 K [kg/m3] | mass density, 310.15 K [kg/m3] | mass density, 315.15 K [kg/m3] | speed of sound, 305.15 K [m/s] | speed of sound, 310.15 K [m/s] | speed of sound, 315.15 K [m/s]
m1 = 0.0005 | 995.062 | 993.352 | 991.353 | 1513.7 | 1523.7 | 1532.2
m1 = 0.002 | 995.271 | 993.569 | 991.665 | 1514.8 | 1524.8 | 1533
m1 = 0.004 | 995.458 | 993.755 | 991.87 | 1516 | 1526 | 1534

O [water]
[2]
Conditions | mass density [kg/m3] | speed of sound [m/s]
305.15 K | 995.09 | 1513.5
310.15 K | 993.403 | 1523.5
315.15 K | 991.51 | 1532.2

CC(C)[C@H](NC(=O)[C@H](C)N)C(=O)O [L-alanyl-L-valine] + O
[1]
Conditions | mass density, 305.15 K [kg/m3] | mass density, 310.15 K [kg/m3] | mass density, 315.15 K [kg/m3] | speed of sound, 305.15 K [m/s] | speed of sound, 310.15 K [m/s] | speed of sound, 315.15 K [m/s]
m1 = 0.00201 | 995.187 | 993.499 | 991.606 | 1514.3 | 1524.8 | 1533.5
m1 = 0.00414 | 995.289 | 993.601 | 991.707 | 1514.5 | 1525 | 1533.7
m1 = 0.00605 | 995.381 | 993.692 | 991.798 | 1514.6 | 1525.2 | 1534
m1 = 0.00791 | 995.471 | 993.781 | 991.886 | 1514.8 | 1525.5 | 1534.1
m1 = 0.01019 | 995.58 | 993.89 | 991.994 | 1515 | 1525.7 | 1534.3
m1 = 0.01179 | 995.657 | 993.966 | 992.07 | 1515.2 | 1525.9 | 1534.4
m1 = 0.01396 | 995.761 | 994.07 | 992.173 | 1515.4 | 1526.1 | 1534.6
m1 = 0.01551 | 995.835 | 994.143 | 992.246 | 1515.6 | 1526.4 | 1534.8
m1 = 0.01805 | 995.957 | 994.264 | 992.366 | 1515.8 | 1526.7 | 1535
m1 = 0.01971 | 996.037 | 994.343 | 992.445 | 1515.9 | 1526.9 | 1535.2

CC(C)C[C@H](NC(=O)[C@H](C)N)C(=O)O [L-alanyl-L-leucine] + O
[1]
Conditions | mass density, 305.15 K [kg/m3] | mass density, 310.15 K [kg/m3] | mass density, 315.15 K [kg/m3] | speed of sound, 305.15 K [m/s] | speed of sound, 310.15 K [m/s] | speed of sound, 315.15 K [m/s]
m1 = 0.00185 | 995.164 | 993.476 | 991.582 | 1514.3 | 1524.7 | 1533.2
m1 = 0.00389 | 995.246 | 993.556 | 991.661 | 1514.4 | 1525 | 1533.4
m1 = 0.00579 | 995.323 | 993.631 | 991.734 | 1514.6 | 1525.2 | 1533.7
m1 = 0.00813 | 995.416 | 993.723 | 991.825 | 1514.7 | 1525.4 | 1533.9
m1 = 0.00966 | 995.478 | 993.783 | 991.884 | 1514.9 | 1525.7 | 1534
m1 = 0.0122 | 995.579 | 993.883 | 991.982 | 1515 | 1525.9 | 1534.3
m1 = 0.01422 | 995.66 | 993.962 | 992.06 | 1515.1 | 1526 | 1534.5
m1 = 0.01589 | 995.727 | 994.027 | 992.124 | 1515.3 | 1526.3 | 1534.7
m1 = 0.01753 | 995.792 | 994.092 | 992.188 | 1515.5 | 1526.6 | 1534.9
m1 = 0.02055 | 995.913 | 994.21 | 992.304 | 1515.6 | 1526.7 | 1535
